melting point [°C]	Compound
247 to 248	CN(C)c1cc2c(cc1Cl)NC(=O)CC(c1cccc(-c3csc(N)n3)c1)=N2
80	CCN(CC)CC(C)N1c2ccccc2Sc2ccc(C(=S)NCCC(C)C)cc21 (racemic)
76 to 77	COc1ccc(C(=O)c2cccnc2N2CCCC2=O)cc1
90.2	CNC(=O)C1CN(CCCC(c2ccc(F)cc2)c2ccc(F)cc2)CCN1CC(=O)Nc1c(C)cc(C)cc1C (stereo unspecified)
184	CC(C)N(CCCC1CCN(CCNC(=O)N2c3ccccc3C(=O)Nc3cccnc32)CC1)C(C)C
190	N#Cc1ccc(N(Cc2ccc3c(c2)CNS(=O)(=O)O3)n2ccnc2)cc1
167 to 168	COc1ccc(C2Nc3ccccc3C(=O)N2c2ccc(F)c(C(F)(F)F)c2)cn1 (stereo unspecified)
224 to 225	O=C(NCc1ccc(Cl)cc1)c1cn2c3c(cc(C#CCO)cc3c1=O)CC2CO (stereo unspecified)
249 to 250	Cc1sc(C(=O)O)cc1NC(=O)Cc1ccccc1
218 to 220	O=C(CO)N1CCN(c2ccc(Nc3cc(-c4cnc5cc[nH]c5c4)cn4ccnc34)nc2)CC1
97 to 99	c1ccc(CSCC2CCn3c(nc4ccccc43)S2)cc1 (stereo unspecified)
> 300	CC1(C)C(=O)NC(=O)c2c1ccc1nc(Nc3c(Cl)cccc3Cl)sc21
186 to 191	CC(=O)Nc1ccccc1C(=O)NC(=O)Nc1ccc(Oc2ncc(Br)cn2)c(C)c1
152 to 154	C=CCSc1cc(C(=O)O)cc(N)c1C(=O)c1ccccc1
136	COC(=O)c1ccc(C=CC(=O)N2CCc3c([nH]c4ccccc34)C2c2ccc3c(c2)OCCO3)cc1 (stereo unspecified)
143 to 145	Fc1ccc(CC(c2ccccc2)C(F)(F)F)cc1 (stereo unspecified)
215 to 218	CC1(C)CC(=O)c2c(SCc3ccccc3)sc(-c3cc[nH]n3)c2C1
69.5 to 70	c1ccc(COCC2c3ccccc3-c3ccccc32)cc1
145 to 146	COc1cccc(Cn2cc3c(-c4cccc(C(=O)NCCC#N)c4)cccc3n2)n1

melting point [°C]	Compound
160 to 162	Cc1cc(-n2c(C)ccc2-c2ccc(S(C)(=O)=O)cc2)ccc1-c1ccco1
249 to 253	CN(C(=O)c1nnc2ccccc2c1O)c1ccc(Cl)cc1
68 to 70	CC(C)c1ccccc1SCc1cn(-c2ccc(S(C)(=O)=O)cc2)c(-c2ccc(Cl)cc2)n1
79 to 81	Cc1ccc2c(n1)CC(c1ccccc1)CC2=O (stereo unspecified)
150 to 156	Cc1c(C(N)=O)oc2c(C(=O)NCCCN3CCN(c4cc(Cl)ccc4OS(=O)(=O)C(F)(F)F)CC3)cccc2c1=O
157 to 158	CCCCCNC(=S)NC(=Nc1ccccc1)c1ccccc1
228	CNC1(c2ccccc2Cl)C(=O)N(S(=O)(=O)c2ccc(NC(=O)c3cccnc3)cc2)c2ccc(Cl)cc21 (stereo unspecified)
117 to 118	CCc1nn2c(-c3ccc(Cl)cc3Cl)cnnc2c1C(CC)CC
92.5 to 94	COC(=O)c1ccccc1-c1ncc(-c2cccc(C(F)(F)F)c2)o1
120 to 121	COc1cc(OC)nc(Oc2cccnc2C(=O)O)n1
78 to 81	COc1ccc(C(O)(Cc2ccncc2)c2ccccc2)c2c1OC(C)(C)C2 (stereo unspecified)
148 to 150	CC12CCC3c4ccc(OC(=O)c5cccnc5)cc4CCC3C1CCC2OC(=O)c1cccnc1 (stereo unspecified)
75 to 76.5	CC(=O)c1ccc(OCC=C(C)CSCc2ccccc2)cc1
120 to 122	COC(=O)c1ccc(OC)c2c(I)c(OC)ccc12
129 to 130	NC(=O)c1ccc(CCCNCC(O)COc2ccccc2)s1 (racemic)
302 to 305	O=C1NCc2c1cc1ccc3c(c1c2-c1ccc(F)cc1)OCC3
149 to 150	CC(=O)N1CCN(Cc2cnc(-c3cc4cccc(NS(=O)(=O)c5cccs5)c4[nH]3)s2)CC1
100 to 104	O=C1C(CCO)Oc2ccccc2N1Cc1cccc2ccccc12 (stereo unspecified)
127 to 128	CCOC(=O)c1nnc(Cc2c(F)cccc2F)n1C

The next lines start with the molecule.

Compound	melting point [°C]
CC(C)(C)c1cccc(C(C)(C)C)c1OP1OP(Oc2c(C(C)(C)C)cccc2C(C)(C)C)OP(Oc2c(C(C)(C)C)cccc2C(C)(C)C)O1 (stereo unspecified)	115 to 132
CC1CC(=O)c2c(ccc(Cl)c2Cl)O1 (stereo unspecified)	135 to 140
Cc1cccc(Oc2c[nH]c(=O)[nH]c2=O)c1	291 to 295
CCCCCCCCC[C@]1(C)OO[C@@H]2C[C@H]1CC(=O)[C@@H]2C	39
CCCCCCCCCCCCCCN(C(=O)CCCCCCCCCCC)C1(N)OC(CO)C(O)C(O)C1C(=O)CNC(=O)C(C)(N)C(=O)C(C)N (stereo unspecified)	132 to 134
CCOC(=O)C(NC(=O)OC(C)(C)C)c1csc(NC(=O)CCl)n1 (stereo unspecified)	192 to 193
ON=CCCc1ccccc1	85 to 93
COP(=O)(Cc1cccc(CP(=O)(OC)OC)c1F)OC	116 to 118
CC(CCCCCCCCCC(=O)O)CC(=O)O (stereo unspecified)	68.5 to 69.5
COc1c(C)cc(NC(C)=O)c(Br)c1C	152 to 153
Cc1cnc(NC2CCC(CCN3CCN(c4ccccc4)CC3)CC2)nc1 (stereo unspecified)	190
CC(C)C(NC(=O)Cn1cccc(NC(=O)Oc2ccc(Cl)cc2)c1=O)C(=O)C(F)(F)F (stereo unspecified)	137 to 139
Cc1ccc(S(=O)c2nc(Cl)c([N+](=O)[O-])s2)cc1 (stereo unspecified)	112
CCNC(=S)C1=CC(CF)(CF)Oc2ccc(C(F)(F)F)cc21	65 to 67
Clc1c(NC2=NCCN2)ccc2nsnc12	232 to 235
Fc1cccc2c1CN(NC1=NCCN1)C2	168 to 170
Cc1cc(Oc2c(Cl)cc(C(F)(F)F)cc2Cl)nn1C(=O)NCC=O	111 to 113

Compound	melting point [°C]
CCNC(=S)n1nc(Oc2ncc(C(F)(F)F)cc2Cl)cc1C	74 to 75
CC(C)Nc1nc(C(=O)O)cn1C	247
CC1Cc2cc(Cl)c(Cl)cc2C(c2ccc([N+](=O)[O-])cc2)=NN1 (stereo unspecified)	182 to 184
CCS(=O)CC(=C1NCCCS1)[N+](=O)[O-] (stereo unspecified)	102 to 104
CCOC(=O)C(C)(C)CCCCOc1cc(C)c(N=Nc2ccc([N+](=O)[O-])cc2)c(C)c1	89 to 90
CC=C1CCC2C3CCC4CC(O)C(OCC)CC4(C)C3C(N(C)C)CC12C (stereo unspecified)	63 to 78
CS(=O)(=O)N1CCC(Nc2nc(Nc3ccc(F)c(Cl)c3)nc(OCC(F)(F)F)n2)C1 (stereo unspecified)	199 to 200
Cc1nn(-c2cc(C(=O)NS(=O)(=O)N(C)C(C)C)c(Cl)cc2F)c(=O)n1C(F)F	118 to 122
CC(=O)Nc1cc(C)c([N+](=O)[O-])cc1CCOC(C)=O	125
OCCSc1cccc2nccn12	99 to 100
CC(C)CCSC1CC(CO)OC1n1ccc(=O)[nH]c1=O (stereo unspecified)	131 to 133
CC1=C2C(=O)N(O)C(=O)c3cccc(c32)C(=NO)C1O (stereo unspecified)	302 to 304
CCCc1cn(CC(=O)O)nc1OCCCc1cn(-c2ccc(C(F)(F)F)cn2)nc1OCC	134 to 135
CC(C)[Si](C(C)C)(C(C)C)N1C=C2C=C(C=O)OCC3=C2C(=C1)CC3N(C)C (stereo unspecified)	104 to 106
COC(=O)Nc1ccc(Br)cn1	191 to 192
CC(C)(C)C(=O)c1cnn2c1NCCC2	169 to 170

Reference: a melting point compilation (Tetko et al.; mined from patent text by program, amines drawn as free bases though some values may be those of a salt)
